According to PubChem BioAssay AID463074 (Broad Institute, 2010):
Values joined by “and” are separate entries in the source; they are usually repeats but may differ in a detail not shown here. Equal entries are not always repeated. Active and inactive are the calls of the source.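 Rule for the calls: active = AC50 no more than tenfold above the top dose tested, or full inhibition at every dose with a flat fit (cut at about 19 µM in these data); inconclusive = flat curve fit with inhibition between 30% and 70%, or poor fit; inactive = AC50 more than tenfold above the top dose tested.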

Test system: HMLE_sh_eGFP viability, CellTiter-Glo luminescence, 72 h
Assay: cytotoxicity in HMLE control line with eGFP shRNA, dose response, counter-screen for HMLE_sh_ECad selective toxicity project, cell-based, HMLE_sh_eGFP, luminescence (AID 463074);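 note: counterscreen control line to flag general toxicity for the HMLE_sh_ECad screen; potency for loss of viability as luminescence drops below DMSO wells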

Q: For `Cc1ccc(C(=O)C(C(=O)/C=C/c2ccccc2)=C2SCCCS2)cc1`, which AC50 is on record?
A: 1.56 µM

Q: With `CC1CCC2C(=O)N(c3ccc(NC4CCCCC4)c([N+](=O)[O-])c3)C(=O)C2C1` (stereo unspecified) as the molecule, how does the AC50 read?
A: 4.01 µM

Q: How did the AC50 turn out when `CC(C)(CN1CCN(Cc2ccccc2)CC1)NS(=O)(=O)c1ccccc1` was run?
A: 8.78 µM

Q: With `Cc1cc2c(cc1C)CSC(c1c(O)ccc3ccccc13)SC2` as the molecule, how does the AC50 read?
A: 3.12 µM

Q: With `CCN(CC)CCNc1ncnc2c1sc1nc(N3CCOCC3)c3c(c12)CC(C)(C)SC3` as the molecule, how does the AC50 read?
A: 6.99 µM

Q: How did the AC50 turn out when `COc1ccc2cc(C(=O)N/N=C/c3sc4ccccc4c3O)ccc2c1` was run?
A: 1.8 µM

Q: For `COc1ccccc1NC(=O)Nc1ccc(-n2ccc(C(F)(F)F)n2)cc1`, which AC50 is on record?
A: 10.3 µM

Q: Which AC50 does the source give for `CCCCC1CCC(C(=O)N(CC(C)C)c2c(N)n(Cc3ccccc3)c(=O)[nH]c2=O)CC1` (stereo unspecified) here?
A: 4.62 µM

Q: How did the AC50 turn out when `O=C(c1cnc2ccc3ccccc3c2c1)c1cc(F)ccc1O` was run?
A: 0.86 µM

Q: `COc1ccc([N+](=O)[O-])cc1Nc1c2ccccc2nc2ccccc12` was tested. Which AC50 did it give?
A: 1.43 µM

Q: `Oc1ccc(CCNc2ncnc3ccc(Cl)cc23)cc1` was tested. Which AC50 did it give?
A: 7.91 µM

Q: For `Cc1oc2c(c1C(=O)N1CCC(C)CC1)C(=O)c1ccccc1C2=O`, which AC50 is on record?
A: 7.99 µM

Q: With `O=C(N/C=N/OCc1ccc(Cl)cc1Cl)NOCc1ncc(C(F)(F)F)cc1Cl` as the molecule, how does the AC50 read?
A: 5.04 µM

Q: With `COc1cccc(/C=N/NC(=O)CSc2nnc(C)n2-c2ccccc2)c1O` as the molecule, how does the AC50 read?
A: 5.01 µM

Q: How did the AC50 turn out when `Cc1ccc(S(=O)(=O)N2[C@@H](c3ccc(C(C)(C)C)cc3)C(C(=O)O)=CC[C@H]2c2cccc(Cl)c2)cc1` was run?
A: 4.26 µM

Q: How did the AC50 turn out when `CCOc1ccc(/C=N/NC(=O)COc2ccccc2-c2ccccc2)cc1` was run?
A: 6.53 µM

Q: With `OCCCNc1cc(-c2ccccc2)nc2cc(-c3ccc(F)cc3)nn12` as the molecule, how does the AC50 read?
A: 9.12 µM

Q: With `COc1ccc(-c2sc3ccccc3c2-c2ccc(O)cc2)cc1` as the molecule, how does the AC50 read?
A: 6.43 µM

Q: Which AC50 does the source give for `O=C(CCC(=O)N1CCN(c2ccc(O)cc2)CC1)c1ccc(Br)cc1` here?
A: 2.64 µM

Q: With `CCc1ccc2[nH]c(=O)c(C3C(C#N)=C(N)Oc4c3ccc3cccnc43)cc2c1` (stereo unspecified) as the molecule, how does the AC50 read?
A: 8.92 µM

Q: For `CC(C)N(C(=O)CSc1nc2ccccc2n1-c1ccccc1)C(C)C`, which AC50 is on record?
A: 7.62 µM

Q: For `Cc1cc(C)nc(NC(=NCCc2c[nH]c3ccccc23)NC(=O)Nc2ccc(Cl)cc2)n1`, which AC50 is on record?
A: > 19.5 µM (inactive)

Q: Which AC50 does the source give for `CC(C)Cn1c(O)c(N=NC(=O)c2cccc(S(=O)(=O)N3CCCCC3)c2)c2ccccc21` here?
A: 1.57 µM

Q: With `CC/C(=C(\c1ccccc1)c1ccc(OCCN(C)C)cc1)c1ccccc1` as the molecule, how does the AC50 read?
A: 6.69 µM and 6.32 µM

Q: With `COc1cc2cnc(-c3ccccc3)c(-c3cccc(C(F)(F)F)c3)c2cc1OC` as the molecule, how does the AC50 read?
A: 6.67 µM

Q: `O=C(Nc1ccc(Cl)cc1)Nc1ccccc1Sc1ncc([N+](=O)[O-])s1` was tested. Which AC50 did it give?
A: 6.81 µM

Q: For `Cc1ccc(NC(=O)C(=Cc2ccc(C(=O)O)cc2)C(=O)Nc2ccc(C)cc2C)c(C)c1`, which AC50 is on record?
A: 3.16 µM

Q: For `COc1cc(-c2noc(C)c2/C=C/c2ccc(OC(C)=O)cc2)cc(OC)c1OC`, which AC50 is on record?
A: 0.292 µM

Q: `COc1cc(F)c(C2=CC(=O)C[C@H](c3ccc(Cl)cc3)C2)cc1F` was tested. Which AC50 did it give?
A: 3.48 µM

Q: Which AC50 does the source give for `Cc1c(C2(O)CCCCC2)[nH]c2ccc(C(F)(F)F)cc12` here?
A: 6.11 µM

Q: `Oc1ccccc1N1CCN(c2ncnc3sc(-c4ccccc4)cc23)CC1` was tested. Which AC50 did it give?
A: 3.53 µM

Q: `COc1ccc(C2NCCc3c2[nH]c2ccccc32)cc1CSc1nc2ccccc2s1` (stereo unspecified) was tested. Which AC50 did it give?
A: 4.98 µM

Q: `Oc1ccc(Br)cc1-c1cc(-c2ccccc2)n[nH]1` was tested. Which AC50 did it give?
A: 6.31 µM

Q: For `c1ccc(-c2c3ccccc3nc3[nH]c4ccccc4c23)cc1`, which AC50 is on record?
A: 2.95 µM

Q: How did the AC50 turn out when `c1ccc(-c2nnc3sc(CN4CCc5ccccc54)cn23)cc1` was run?
A: 3.51 µM

Q: How did the AC50 turn out when `CCN1CCN(c2ccc(NC(=O)CCc3c(C)nc4c(-c5ccc(F)cc5)c(C)nn4c3C)cc2)CC1` was run?
A: 5.22 µM

Q: Which AC50 does the source give for `O=C(c1cnn2c1NC(c1ccc(Br)cc1)CC2C(F)(F)F)N1CCN2CCCC2C1` (stereo unspecified) here?
A: 4.46 µM

Q: How did the AC50 turn out when `Cc1ccc(C)c(NC(=O)/C(C#N)=C/c2cn(CC(=O)NCc3ccco3)c3ccccc23)c1` was run?
A: > 19.5 µM (inactive)

Q: With `CCN(CC)C1CCN(C(=O)c2cc(COc3ccc(F)cc3Cl)on2)C1` (stereo unspecified) as the molecule, how does the AC50 read?
A: 15.4 µM

Q: With `CC(C)C[C@H]1CN=C(Nc2ccccc2)N1CC1CCC(C(C)(C)C)CC1` (stereo partly specified) as the molecule, how does the AC50 read?
A: 5.34 µM

Q: `O=c1c2ccccc2oc2ccc(C#CC3(O)CCCCC3)cc12` was tested. Which AC50 did it give?
A: 7.11 µM

Q: Which AC50 does the source give for `CCC/C(=C1/c2ccccc2C(=O)N1c1ccccc1)c1ccc2[nH]ccc2c1` here?
A: 1.67 µM

Q: Which AC50 does the source give for `CCN1C(=O)/C(=C\N2CCN(c3cccc(Cl)c3)CC2)SC1=S` here?
A: > 19.5 µM (inactive)

Q: With `CC(=O)c1ccc(-c2ccc([C@H]3[C@H]4C=CC[C@@H](C)[C@@H]4C(=O)N3Cc3ccccc3)c(F)c2)cc1` as the molecule, how does the AC50 read?
A: 6.13 µM

Q: Which AC50 does the source give for `CN1CCC(OC(=O)c2cccc(Cl)c2)CC1` here?
A: 3.33 µM

Q: For `Cc1cc(C)nc(NC(=O)c2ccc(COc3ccccc3Cl)cc2)c1`, which AC50 is on record?
A: 0.401 µM

Q: Which AC50 does the source give for `CCCc1[nH]c2ccc(C#N)cc2c1CCC` here?
A: 4.14 µM

Q: Which AC50 does the source give for `CCCOc1c(Cl)cc(C(=O)Nc2ccc3c(c2)OCO3)cc1OCC` here?
A: 5.39 µM

Q: With `COc1ccccc1Nc1ccc(NC(=O)c2cccc([N+](=O)[O-])c2C)cc1` as the molecule, how does the AC50 read?
A: 3.82 µM

Q: With `CCCCc1oc2ccccc2c1C(=O)c1cc(I)c(OCCN(CC)CC)c(I)c1` as the molecule, how does the AC50 read?
A: 6.92 µM

Q: `O=C(Nc1ccc(N2CCN(C(=O)c3cccs3)CC2)cc1)c1ccc([N+](=O)[O-])o1` was tested. Which AC50 did it give?
A: 1.87 µM

Q: Which AC50 does the source give for `CC(C)(C)c1cc(Cl)ccc1OCCOCCN1CCCC1` here?
A: 6.54 µM

Q: Which AC50 does the source give for `COc1ccc(Nc2nnc(-c3ccccc3)c3ccccc23)cc1C(=O)N1CCCCC1` here?
A: > 19.5 µM (inactive)

Q: With `Cc1cccc(OCCNC(=O)c2cccc(Oc3ccc(C(F)(F)F)cc3[N+](=O)[O-])c2)c1` as the molecule, how does the AC50 read?
A: 6.38 µM

Q: `COc1ccc2nc(C)cc(SCC(=O)N/N=C/c3ccc(O)cc3O)c2c1` was tested. Which AC50 did it give?
A: 2.33 µM

Q: How did the AC50 turn out when `C=CCC[C@@H](Cc1ccc(F)cc1)C(=O)OC[C@@H](Cc1c[nH]c2ccccc12)NC(=O)[C@@H](CC=C)CC(=O)N(CCO)Cc1ccccc1` was run?
A: 7.13 µM

Q: With `CCOc1cc(/C=C\c2[nH]c(=O)[nH]c(=O)c2[N+](=O)[O-])ccc1OC(C)CC` (stereo unspecified) as the molecule, how does the AC50 read?
A: 8.32 µM

Q: With `Cc1cccc(NC(=S)N/N=C/c2ccc([N+](=O)[O-])s2)c1` as the molecule, how does the AC50 read?
A: 6.78 µM

Q: Which AC50 does the source give for `COC(=O)c1ccccc1NCc1cc(=O)oc2cc(O)c(O)cc12` here?
A: 10.9 µM

Q: For `COc1ccc(-c2sc3cc4c(cc3c2C#CC2(N)CCCCC2)OCO4)cc1`, which AC50 is on record?
A: 1.91 µM

Q: Which AC50 does the source give for `Nc1[nH]n2c(=O)cc(-c3ccccc3)nc2c1N=Nc1ccccc1` here?
A: 13.3 µM

Q: How did the AC50 turn out when `CCC1=NN2C(=N)/C(=C/c3c(C)nn(-c4ccccc4)c3Cl)C(=O)N=C2S1` was run?
A: > 19.5 µM (inactive)

Q: How did the AC50 turn out when `O=C(Nc1ccc(CN2CCOCC2)cc1)c1ccc(-c2ccc(Cl)cc2Cl)o1` was run?
A: 7.06 µM

Q: How did the AC50 turn out when `Cc1cc(C)nc(NC(=O)/C=C/c2ccc3c(c2)OCO3)c1` was run?
A: 2.8 µM

Q: With `Cc1ccc(COc2ccc(Br)cc2/C=N/O)cc1` as the molecule, how does the AC50 read?
A: 5.23 µM

Q: With `CC(=O)[C@@]1(O)C(C)CC2C3C=C(C)C4=Cc5c(cnn5-c5ccccc5)C[C@]4(C)C3C(O)C[C@@]21C` (stereo partly specified) as the molecule, how does the AC50 read?
A: 4.03 µM

Q: Which AC50 does the source give for `COc1ccc2nc(NC(=O)c3ccc([N+](=O)[O-])o3)sc2c1` here?
A: 3.77 µM

Q: Which AC50 does the source give for `CC(NCc1ccc(OCc2ccc(Cl)cc2)cc1)C(O)c1ccccc1` (stereo unspecified) here?
A: 3.57 µM

Q: With `COc1ccc(NS(=O)(=O)c2ccc3nc(COc4cccc5ccccc45)[nH]c3c2)cc1` as the molecule, how does the AC50 read?
A: 4.75 µM

Q: Which AC50 does the source give for `CC(C)c1ccc(NC(=O)C(c2ccccc2)N(C)C(=O)CCc2c[nH]c3ccccc23)cc1` (stereo unspecified) here?
A: 7.92 µM

Q: How did the AC50 turn out when `Cc1ccc(C=Nc2ccccc2C(N)=O)s1` was run?
A: 2.79 µM

Q: `Oc1ccc(/C=N/Nc2ncc(Br)cn2)c(O)c1` was tested. Which AC50 did it give?
A: 5.8 µM

Q: With `CCCCn1c(SCC(N)=O)nc2sc3c(c2c1=O)CCC3` as the molecule, how does the AC50 read?
A: > 19.5 µM (inactive)

Q: How did the AC50 turn out when `Cc1ccc(-c2csc3ncnc(-n4cnc5ccccc54)c23)cc1` was run?
A: 4.28 µM

Q: With `CCN(Cc1ccccc1)S(=O)(=O)c1ccc(C(=O)N(CCCN(C)C)c2nc3cc(C)cc(C)c3s2)cc1` as the molecule, how does the AC50 read?
A: 3.75 µM

Q: How did the AC50 turn out when `COc1cc(N=Nc2ccc3ccccc3c2)ccc1O` was run?
A: 6.43 µM
